Drawing on US7348425B2, “Inhibitors of HCV replication” (Bristol-Myers Squibb Company, priority 2004, dated 2008), this text covers IC50 and EC50 for 35 molecules.

T1 sequence (Q9WMX2 2420-2992): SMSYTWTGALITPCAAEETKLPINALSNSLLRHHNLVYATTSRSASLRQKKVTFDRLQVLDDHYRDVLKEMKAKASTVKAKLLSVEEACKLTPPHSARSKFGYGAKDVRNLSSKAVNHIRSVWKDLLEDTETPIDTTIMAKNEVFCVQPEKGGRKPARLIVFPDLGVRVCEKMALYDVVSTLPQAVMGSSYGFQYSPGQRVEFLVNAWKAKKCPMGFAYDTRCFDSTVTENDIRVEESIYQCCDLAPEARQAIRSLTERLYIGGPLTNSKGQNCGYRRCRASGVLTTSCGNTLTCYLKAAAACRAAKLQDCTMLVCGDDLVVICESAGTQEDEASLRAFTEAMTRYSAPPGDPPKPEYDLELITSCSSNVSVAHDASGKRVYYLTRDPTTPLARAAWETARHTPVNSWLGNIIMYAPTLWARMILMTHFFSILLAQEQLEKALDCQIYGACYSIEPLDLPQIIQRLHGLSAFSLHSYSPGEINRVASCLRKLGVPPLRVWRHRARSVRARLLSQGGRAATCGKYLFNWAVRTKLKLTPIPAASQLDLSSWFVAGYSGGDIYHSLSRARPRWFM

One assay addresses T1, HCV NS5B RdRp genotype 1b (Hepatitis C virus genotype 1b, UniProt Q9WMX2).
T1 construct: The protein was expressed with an 18 amino acid C-terminal truncation to enhance the solubility; made in house; host or cells: E. coli BL21 (DE3), pET21a
Kind of assay: Modified HCV NS5B RdRp enzyme assay (with preincubation). In kind it is biochemical. The settings on record: modified method (with preincubation). The method, then: HCVNS5B RdRp cloning, expression, and purification. The cDNA encoding the NS5B protein of HCV, genotype 1b, was cloned into the pET21a expression vector. The protein was expressed with an 18 amino acid C-terminal truncation to enhance the solubility. The E. coli competent cell line BL21 (DE3) was used for expression of the protein. Cultures were grown at 37° C. for ˜4 hours until the cultures reached an optical density of 2.0 at 600 nm. The cultures were cooled to 20° C. and induced with 1 mM IPTG. Fresh ampicillin was added to a final concentration of 50 μg/ml and the cells were grown overnight at 20° C.
Cell pellets (3 L) were lysed for purification to yield 15-24 mgs of purified NS5B. The lysis buffer consisted of 20 mM Tris-HCl, pH 7.4, 500 mM NaCl, 0.5% triton X-100, 1 mM DTT, 1 mM EDTA, 20% glycerol, 0.5 mg/ml lysozyme, 10 mM MgCl2, 15 ug/ml deoxyribonuclease I, and Complete TM protease inhibitor tablets (Roche). After addition of the lysis buffer, frozen cell pellets were resuspended using a tissue homogenizer. To reduce the viscosity of the sample, aliquots of the lysate were sonicated on ice using a microtip attached to a Branson sonicator. The sonicated lysate was centrifuged at 100,000×g for 1 hr at 4° C. and filtered through a 0.2 μm filter unit (Corning).
The protein was purified using three sequential chromatography steps: Heparin sepharose CL-6B, polyU sepharose 4B, and Hitrap SP sepharose (Pharmacia). The chromatography buffers were identical to the lysis buffer but contained no lysozyme, deoxyribonuclease I, MgCl2 or protease inhibitor and the NaCl concentration of the buffer was adjusted according to the requirements for charging the protein onto the column. Each column was eluted with a NaCl gradient which varied in length from 5-50 column volumes depending on the column type. After the final chromatography step, the resulting purity of the enzyme is >90% based on SDS-PAGE analysis. The enzyme was aliquoted and stored at −80° C.
Standard HCV NS5B RdRp enzyme assay. HCV RdRp genotype Ib assays were run in a final volume of 60 μl in 96 well plates (Costar 3912). The assay buffer is composed of 20 mM Hepes, pH 7.5, 2.5 mM KCl, 2.5 mM MgCl2, 1 mM DTT, 1.6 U RNAse inhibitor (Promega N2515), 0.1 mg/ml BSA (Promega R3961), and 2% glycerol. All compounds were serially diluted (3-fold) in DMSO and diluted further in water such that the final concentration of DMSO in the assay was 2%. HCV RdRp genotype 1b enzyme was used at a final concentration of 28 nM. A polyA template was used at 6 nM, and a biotinylated oligo-dT12 primer was used at 180 nM final concentration. Template was obtained commercially (Amersham 27-4110). Biotinylated primer was prepared by Sigma Genosys. ^3H-UTP was used at 0.6 μCi (0.29 μM total UTP). Reactions were initiated by the addition of enzyme, incubated at 30° C. for 60 min, and stopped by adding 25 μl of 50 mM EDTA containing SPA beads (4 μg/μl, Amersham RPNQ 0007). Plates were read on a Packard Top Count NXT after >1 hr incubation at room temperature.
Modified HCV NS5B RdRp enzyme assay. A modified enzyme assay was performed essentially as described for the standard enzyme assay except for the following: The biotinylated oligo dT12 primer was precaptured on streptavidin-coated SPA beads by mixing primer and beads in assay buffer and incubating at room temperature for one hour. Unbound primer was removed after centrifugation. The primer-bound beads were resuspended in 20 mM Hepes buffer, pH 7.5 and used in the assay at final concentrations of 20 nM primer and 0.67 μg/μl beads. Order of addition in the assay: enzyme (14 nM) was added to diluted compound followed by the addition of a mixture of template (0.2 nM), ^3H-UTP (0.6 μCi, 0.29 μM), and primer-bound beads, to initiate the reaction; concentrations given are final. Reactions were allowed to proceed for 4 hours at 30° C.
The IC50 values for compounds were determined using seven different [I]. […]
Regarding `COC(=O)c1ccc2c(C3CCCCC3)c3n(c2c1)CC(C(=O)N1CCOCC1)=Cc1ccc(Cl)cc1-3`, the IC50 – broadly, the concentration that gives 50% inhibition – was above 1 µM.
For the molecule `O=C(NS(=O)(=O)C1CC1)c1ccc2c(C3CCCCC3)c3n(c2c1)CC(C(=O)N1CCOCC1)Cc1ccccc1-3` (centres unmarked) [drawing 288], the IC50 was 0.02 to 1 µM.
Same read-out and setting: with `O=C(NS(=O)(=O)C1CC1)c1ccc2c(C3CCCCC3)c3n(c2c1)CC(C(=O)N1CCOCC1)Cc1ccccc1-3` (centres unmarked) [drawing 289] the figure was 0.02 to 1 µM.
The same measure, in the same setting: with `COC(=O)c1ccc2c(C3CCCCC3)c3n(c2c1)CC(C(=O)OCc1ccccc1)=Cc1ccccc1-3` [drawing 322] the figure was above 1 µM; with `CS(=O)(=O)NC(=O)c1ccc2c(C3CCCCC3)c3n(c2c1)CC(C(=O)N1CCOCC1)Cc1ccccc1-3` (centres unmarked) [drawing 348], 0.02 to 1 µM.

Still in this assay, the particulars now being: preincubation protocol.
As for `COC(=O)c1ccc2c(C3CCCCC3)c3n(c2c1)C(O)c1cc(N(C)C)ccc1-3` (centres unmarked), the IC50 was above 4 µM.
Molecule `COC(=O)C1=Cc2occc2-c2c(C3CCCCC3)c3ccc(C(=O)OC)cc3n2C1` came in with an IC50 above 12.5 µM.
Molecule `COC(=O)c1ccc2c(C3CCCCC3)c3n(c2c1)CC(C(=O)O)=Cc1occc1-3` registered an IC50 of 1 to 10 µM.
The molecule `COC(=O)c1ccc2c(C3CCCCC3)c3n(c2c1)CC(C(=O)NCC=O)=Cc1cc(OC)ccc1-3` had an IC50 of 0.01 to 1 µM.
On the same count and under the same terms, in the case of `COC(=O)C1=Cc2cc(N(C)C)ccc2-c2c(C3CCCCC3)c3ccc(C(=O)OC)cc3n2C1` it was above 12.5 µM.
Same read-out and setting: in the case of `COC(=O)c1ccc2c(C3CCCCC3)c3n(c2c1)CC(C(=O)N1CCOCC1)=Cc1occc1-3` it was above 4 µM.
With `COC(=O)c1ccc2c(C3CCCCC3)c3n(c2c1)CC(C(=O)N1C[C@@H](C)O[C@@H](C)C1)=Cc1occc1-3`, the IC50 is above 4 µM.

A further assay has as its system HCV replicon. The experiment in a line: HCV replicon FRET assay. The class given is cell-based. To be noted: Hepatitis C virus; FRET assay; read-out: EC50. How it is done: The IC50 values for compounds were determined using seven different [I]. IC50 values were calculated from the inhibition using the formula y=A+((B−A)/(1+((C/x)^D))). FRET Assay Preparation. To perform the HCV FRET screening assay, 96-well cell culture plates were used. The FRET peptide (Anaspec, Inc.) (Taliani et al., Anal. Biochem. 240:60-67 (1996), hereby incorporated by reference in its entirety) contains a fluorescence donor, EDANS, near one end of the peptide and an acceptor, DABCYL, near the other end. The fluorescence of the peptide is quenched by […] resonance energy transfer (RET) between the donor and the acceptor, but as the NS3 protease cleaves the peptide the products are released from RET quenching and the fluorescence of the donor becomes apparent. The assay reagent was made as follows: 5× cell Luciferase cell culture lysis reagent from Promega (#E153A) diluted to 1× with dH2O, NaCl added to 150 mM final, the FRET peptide diluted to 20 uM final from a 2 mM stock.
To prepare plates, HCV replicon cells, with or without a Renilla luciferase reporter gene, were trypsinized and placed into each well of a 96-well plate with titrated test compounds added in columns 3 through 12; columns 1 and 2 contained a control compound (HCV protease inhibitor), and the bottom row contained cells without compound. The plates were then placed in a CO2 incubator at 37 degrees C.
Assays. Subsequent to addition of the test compounds described above (FRET Assay Preparation), at various times the plate was removed and Alamar blue solution (Trek Diagnostics, #00-100) was added per well as a measure of cellular toxicity. After reading in a Cytoflour 4000 instrument (PE Biosystems), plates were rinsed with PBS and then used for FRET assay by the addition of 30 ul of the FRET peptide assay reagent described above (FRET Assay Preparation) per well. The plate was then placed into the Cytoflour 4000 instrument which had been set to 340 excite/490 emission, automatic mode for 20 cycles and the plate read in a kinetic mode. Typically, the signal to noise using an endpoint analysis after the reads was at least three-fold. Alternatively, after Alamar blue reading, plates were rinsed with PBS, 50 ul of DMEM (high glucose) without phenol red was added and plates were then used for luciferase assay using the Promega Dual-Glo Luciferase Assay System.
Compound analysis was determined by quantification of the relative HCV replicon inhibition and the relative cytotoxicity values. To calculate cytoxicity values, the average Alamar Blue fluorescence signals from the control wells were set as 100% non-toxic. The individual signals in each of the compound test wells were then divided by the average control signal and multiplied by 100% to determine […]. To calculate the HCV replicon inhibition values, an average background value was obtained from the two wells containing the highest amount of HCV protease inhibitor at the end of the assay period. These numbers were similar to those obtained from naïve Huh-7 cells.
The background numbers were then subtracted from the average signal obtained from the control wells and this number was used as 100% activity. The individual signals in each of the compound test wells were then divided by the averaged control values after background subtraction and multiplied by 100% to determine percent activity. EC50 values for a protease inhibitor titration were calculated as the concentration which caused a 50% reduction in FRET or luciferase activity. The two numbers generated for the compound plate, percent cytoxicity and percent activity were used to determine compounds of interest for further analysis.
Background: In antiviral work, replicon cells carry a viral genome segment that copies itself.
For the molecule `O=C(O)c1ccc2c(C3CCCCC3)c3n(c2c1)C/C=C\COc1ccccc1-3`, the EC50 (usually the concentration needed to bring the measured effect to its halfway point) was in the range of 1 to 10 µM.
Take `COC(=O)/C=C/c1ccc(NC(=O)C2(NC(=O)c3ccc4c(C5CCCCC5)c5n(c4c3)CCCn3ccnc3-5)CCCC2)cc1`: the EC50 is 1 to 10 µM.
On the same count and under the same terms, with `CC(C)(C)OC(=O)N1CCCCn2c(c(C3CCCCC3)c3ccc(C(=O)NC4(C(=O)Nc5ccc(/C=C/C(=O)O)cc5)CCCC4)cc32)-c2ccccc21` the figure was 1 to 10 µM; with `O=C(NC1(C(=O)O)CCCC1)c1ccc2c(C3CCCCC3)c3n(c2c1)CCCCNc1ccccc1-3`, 1 to 10 µM.
The same measure, in the same setting: in the case of `COC(=O)/C=C/c1ccc(NC(=O)C2(NC(=O)c3ccc4c(C5CCCCC5)c5n(c4c3)CCCc3nc[nH]c3-5)CCCC2)cc1` it was 1 to 10 µM.
For the molecule `O=C(O)/C=C/c1ccc(NC(=O)C2(NC(=O)c3ccc4c(C5CCCCC5)c5n(c4c3)CCCc3nc[nH]c3-5)CCCC2)cc1`, the EC50 fell in the range of 1 to 10 µM.
The same measure, in the same setting: in the case of `O=C(O)c1ccc2c(C3CCCCC3)c3n(c2c1)CCCc1nc[nH]c1-3` it was above 10 µM; in that of `CN1C(=O)Cn2c(c(C3CCCCC3)c3ccc(C(=O)NS(=O)(=O)N(C)C)cc32)-c2ccccc21`, 0.01 to 1 µM.
As for `O=C(O)c1ccc(-c2cnc(NC(=O)C3(NC(=O)c4ccc5c(C6CCCCC6)c6n(c5c4)CC=Cc4ccccc4-6)CCCC3)s2)cc1`, the EC50 is 0.01 to 1 µM.
Consider `O=C(NC1(C(=O)Nc2nccs2)CCCC1)c1ccc2c(C3CCCCC3)c3n(c2c1)CC=Cc1ccccc1-3`, for which the EC50 lay within 0.01 to 1 µM.
As for `O=C(NC1(C(=O)O)CCNCC1)c1ccc2c(C3CCCCC3)c3n(c2c1)CC=Cc1ccccc1-3`, the EC50 was 1 to 10 µM.
In the case of `O=C(O)c1ccc2c(C3CCCCC3)c3n(c2c1)CCCc1nccnc1-3`, the EC50 was 1 to 10 µM.
Consider `O=C(O)c1ccc2c(C3CCCCC3)c3n(c2c1)CCNc1ccccc1-3`, for which the EC50 was 1 to 10 µM.
Same read-out and setting: with `COC(=O)/C=C/c1ccc(NC(=O)C2(NC(=O)c3ccc4c(C5CCCCC5)c5n(c4c3)CCCc3nccnc3-5)CCCC2)cc1` the figure was 1 to 10 µM; with `COC(=O)/C=C/c1ccc(NC(=O)C2(NC(=O)c3ccc4c(C5CCCCC5)c5n(c4c3)CC(C(=O)NCCN(C)C)=Cc3ccccc3-5)CCCC2)cc1`, 0.01 to 1 µM.
Still for that read-out and setting: in the case of `COC(=O)/C=C/c1ccc(NC(=O)C2(NC(=O)c3ccc4c(C5CCCCC5)c5n(c4c3)CC(=O)N(C)c3ccccc3-5)CCCC2)cc1` it was 0.01 to 1 µM; in that of `CCOC(=O)/C=C/c1ccc(NC(=O)C2(NC(=O)c3ccc4c(C5CCCCC5)c5n(c4c3)CCN(C(=O)OC(C)(C)C)c3ccccc3-5)CCCC2)cc1`, 0.01 to 1 µM.
Take `CCOC(=O)/C=C/c1ccc(NC(=O)C2(NC(=O)c3ccc4c(C5CCCCC5)c5n(c4c3)CCNc3ccccc3-5)CCCC2)cc1`: the EC50 fell in the range of 0.01 to 1 µM.
`O=C(O)c1ccc2c(C3CCCCC3)c3n(c2c1)C(=O)NCc1ccccc1-3`: the EC50 is above 10 µM.
In the case of `CN1Cc2ccccc2-c2c(C3CCCCC3)c3ccc(C(=O)O)cc3n2C1=O`, the EC50 is above 10 µM.
For `CC1=C(C(=O)N2CCOCC2)Cn2c(c(C3CCCCC3)c3ccc(C(=O)NS(=O)(=O)N(C)C)cc32)-c2ccccc21`, the EC50 lay in the range of 0.01 to 1 µM.
Regarding `COC(=O)c1ccc2c(C3CCCCC3)c3n(c2c1)CC(C(=O)N1C[C@@H](C)O[C@@H](C)C1)=Cc1c(OC)cccc1-3`, the EC50 is above 3.3 µM.
Still for that read-out and setting: with `COc1cc2c(cn1)-c1c(C3CCCCC3)c3ccc(C(=O)O)cc3n1CC(C(=O)N1C[C@@H](C)O[C@@H](C)C1)=C2` the figure was 1 to 10 µM.
